Source: patent US20240294541A1, “COMPOUNDS CONSTITUTING C20-MODIFIED SALINOMYCIN DERIVATIVES, A METHOD FOR OBTAINING THE SAME, A COMPOSITION CONTAINING THE SAME AND A USE OF SAID COMPOUNDS” (FILECLO SPOLKA Z OGRANICZONA ODPOWIEDZIALNOSCIA, priority 2021, published 2024)
Counter-ions that a name gives are not always drawn. Like-named read-outs stand apart in the source and are kept apart here.

Tests used:
Type in all cases: cell-based
[1] = test system: NCI-H23 (human lung cancer); experiment: In vitro cytotoxicity, SRB assay, NCI-H23; details: for IC50: Homo sapiens, NCI-H23, 72 h with compound, SRB, n/a = non-active compound, read-out: NCI-H23 IC50
[2] = test system: PFSK-1 (malignant primitive neuroectodermal tumour); experiment: In vitro cytotoxicity, SRB assay, PFSK-1; details: for IC50: Homo sapiens, PFSK-1, 72 h with compound, SRB, n/a = non-active compound, read-out: PFSK-1 IC50
[3] = test system: A2780 (human ovarian cancer); experiment: In vitro cytotoxicity, SRB assay, A2780; details: for IC50: Homo sapiens, A2780, 72 h with compound, SRB, n/a = non-active compound, read-out: A2780 IC50
[4] = test system: A2780Cis (cisplatin-resistant human ovarian cancer); experiment: In vitro cytotoxicity, SRB assay, A2780Cis; details: for IC50: Homo sapiens, A2780cis
[5] = test system: A375 (human melanoma); experiment: In vitro cytotoxicity, SRB assay, A375
[6] = test system: PLC/PRF/5 (human liver cancer); experiment: cells; details: for IC50: Homo sapiens, PLC-PRF-5, 72 h with compound, SRB, n/a = non-active compound, read-out: PLC/PRF/5 IC50
[7] = test system: SNU-16 (human gastric cancer); experiment: cells; details: for IC50: Homo sapiens, SNU-16, 72 h with compound, MTT, n/a = non-active compound, read-out: SNU-16 IC50
[8] = test system: KG-1 (human acute myeloid leukaemia); experiment: In vitro cytotoxicity, MTT assay, KG-1; details: for IC50: Homo sapiens, 72 h with compound, MTT, n/a = non-active compound
[9] = test system: MIA PaCa-2 (human pancreatic cancer); experiment: cells
[10] = test system: BALB/3T3 (normal mouse fibroblasts); experiment: In vitro cytotoxicity, SRB assay, normal BALB/3T3 fibroblasts
[11] = test system: MV-4-11 (human biphenotypic leukaemia); experiment: In vitro cytotoxicity, MTT assay, MV-4-11; details: for IC50: Homo sapiens, MV4-11, read-out: IC50 (nM) MV4-11
[12] = selectivity coefficient vs normal BALB/3T3 cells
[13] = 72 h, read-out: A2780Cis IC50 (nM)
[14] = Table 5, BALB/3T3 normal mouse fibroblasts, read-out: IC50 (nM) BALB3T3 normal cells

SMILES	SI A2780Cis [4]	IC50 ([4]; read-out: IC50 (nM) A2780Cis) [nM]	IC50 [10, 14] [nM]	SI MV4-11 [11]	IC50 [11] [nM]	other results
CC[C@@H](C(=O)[C@@H](C)[C@@H](O)[C@H](C)[C@@H]1O[C@@H]([C@@H](CC)C(=O)O)CC[C@@H]1C)[C@H]1O[C@]2(C=C[C@@H](NC(=S)Nc3ccc(F)cc3)[C@]3(CC[C@@](C)([C@H]4CC[C@](O)(CC)[C@H](C)O4)O3)O2)[C@H](C)C[C@@H]1C [FLC-00340-1 Na]						IC50 [1]: 8.64 nM; NCI-H23 SI [1, 12]: 6.7; IC50 [2]: 9.37 nM; PFSK-1 SI [2, 12]: 6.2; IC50 [3]: 2.41 nM; A2780 SI [3, 12]: 24.0; A2780Cis RI [4]: 0.8; A2780Cis SI [4]: 31.4; IC50 [4, 13]: 1.84 nM; IC50 ([5]; Homo sapiens, A-375, 72 h with compound, SRB, n/a = non-active compound, read-out: A375 IC50): 31.2 nM; A375 SI [5, 12]: 1.8; IC50 [6]: 19.1 nM; PLC/PRF/5 SI [6, 12]: 3.0; IC50 [7]: 16.7 nM; SNU-16 SI [7, 12]: 3.5; IC50 [8]: 24.4 nM; KG-1 SI [8, 12]: 2.4; IC50 ([9]; Homo sapiens, MIA PaCa-2, 72 h with compound, SRB, n/a = non-active compound, read-out: MIA PaCa-2 IC50): 33.9 nM; MIA PaCa-2 SI [9, 12]: 1.7; IC50 ([10]; Mus musculus, BALB/3T3, normal cells, 72 h with compound, SRB, n/a = non-active compound, read-out: BALB/3T3 IC50): 57.7 nM
CCOC(=O)C(=O)N[C@@H]1C=C[C@]2(O[C@H]([C@@H](CC)C(=O)[C@@H](C)[C@@H](O)[C@H](C)[C@@H]3O[C@@H]([C@@H](CC)C(=O)O)CC[C@@H]3C)[C@@H](C)C[C@H]2C)O[C@@]12CC[C@@](C)([C@H]1CC[C@](O)(CC)[C@H](C)O1)O2 [FLC-00373-1, C20-aminosalinomycin oxalate derivative]						IC50 [3]: 6690 nM; IC50 [8]: 9060 nM
CC[C@@H](C(=O)[C@@H](C)[C@@H](O)[C@H](C)[C@@H]1O[C@@H]([C@@H](CC)C(=O)O)CC[C@@H]1C)[C@H]1O[C@]2(C=C[C@@H](NC(=O)NS(=O)(=O)c3ccccc3)[C@]3(CC[C@@](C)([C@H]4CC[C@](O)(CC)[C@H](C)O4)O3)O2)[C@H](C)C[C@@H]1C [FLC-00365-1]						IC50 [2]: 6200 nM; IC50 [3]: 3480 nM; A2780Cis RI [4]: 0.9; IC50 [4, 13]: 3020 nM; IC50 [7]: 5830 nM; IC50 [8]: 8000 nM
CC[C@@H](C(=O)[C@@H](C)[C@@H](O)[C@H](C)[C@@H]1O[C@@H]([C@@H](CC)C(=O)O)CC[C@@H]1C)[C@H]1O[C@]2(C=C[C@@H](NC(=O)CBr)[C@]3(CC[C@@](C)([C@H]4CC[C@](O)(CC)[C@H](C)O4)O3)O2)[C@H](C)C[C@@H]1C [FLC-00501-1•Na, C20-aminosalinomycin 2-bromoacetamide]	1.3	2230	2830	1.6	1740	
CC[C@@H](C(=O)[C@@H](C)[C@@H](O)[C@H](C)[C@@H]1O[C@@H]([C@@H](CC)C(=O)O)CC[C@@H]1C)[C@H]1O[C@]2(C=C[C@@H](NC(=O)NCC3CCC(F)(F)CC3)[C@]3(CC[C@@](C)([C@H]4CC[C@](O)(CC)[C@H](C)O4)O3)O2)[C@H](C)C[C@@H]1C [FLC-00545-1•Na]	186.6	0.57	106	62.8	1.68	
CC[C@@H](C(=O)[C@@H](C)[C@@H](O)[C@H](C)[C@@H]1O[C@@H]([C@@H](CC)C(=O)O)CC[C@@H]1C)[C@H]1O[C@]2(C=C[C@@H](NC(=O)OC3CCN(C)CC3)[C@]3(CC[C@@](C)([C@H]4CC[C@](O)(CC)[C@H](C)O4)O3)O2)[C@H](C)C[C@@H]1C [FLC-00559-1•Na]	16.2	330	5340	17.8	300	
CC[C@@H](C(=O)[C@@H](C)[C@@H](O)[C@H](C)[C@@H]1O[C@@H]([C@@H](CC)C(=O)O)CC[C@@H]1C)[C@H]1O[C@]2(C=C[C@@H](NC(=O)OCCC#N)[C@]3(CC[C@@](C)([C@H]4CC[C@](O)(CC)[C@H](C)O4)O3)O2)[C@H](C)C[C@@H]1C [FLC-00509-1•Na]	14.7	16.7	246	10.9	22.6	
CC[C@@H](C(=O)[C@@H](C)[C@@H](O)[C@H](C)[C@@H]1O[C@@H]([C@@H](CC)C(=O)O)CC[C@@H]1C)[C@H]1O[C@]2(C=C[C@@H](NC(=O)NS(=O)(=O)c3ccc(C)cc3)[C@]3(CC[C@@](C)([C@H]4CC[C@](O)(CC)[C@H](C)O4)O3)O2)[C@H](C)C[C@@H]1C [FLC-00364-1]						IC50 [1]: 4790 nM; IC50 [2]: 5600 nM; IC50 [3]: 2600 nM; A2780Cis RI [4]: 0.4; IC50 [4, 13]: 1130 nM; IC50 [6]: 4480 nM; IC50 [7]: 5380 nM; IC50 [8]: 3700 nM
CC[C@@H](C(=O)[C@@H](C)[C@@H](O)[C@H](C)[C@@H]1O[C@@H]([C@@H](CC)C(=O)O)CC[C@@H]1C)[C@H]1O[C@]2(C=C[C@@H](NS(=O)(=O)c3ccc(C)cc3)[C@]3(CC[C@@](C)([C@H]4CC[C@](O)(CC)[C@H](C)O4)O3)O2)[C@H](C)C[C@@H]1C [FLC-00502-1•Na]	52.7	1.76	92.7	28.1	3.3	
CC[C@@H](C(=O)[C@@H](C)[C@@H](O)[C@H](C)[C@@H]1O[C@@H]([C@@H](CC)C(=O)O)CC[C@@H]1C)[C@H]1O[C@]2(C=C[C@@H](NC(=O)NCCc3cccnc3)[C@]3(CC[C@@](C)([C@H]4CC[C@](O)(CC)[C@H](C)O4)O3)O2)[C@H](C)C[C@@H]1C [FLC-00567-1•Na]	54.2	15.7	848	25.0	34	
CC[C@@H](C(=O)[C@@H](C)[C@@H](O)[C@H](C)[C@@H]1O[C@@H]([C@@H](CC)C(=O)O)CC[C@@H]1C)[C@H]1O[C@]2(C=C[C@@H](NC(=O)C(=O)NCc3ccccn3)[C@]3(CC[C@@](C)([C@H]4CC[C@](O)(CC)[C@H](C)O4)O3)O2)[C@H](C)C[C@@H]1C [FLC-00478-1•Na]	25.9	63.6	1650	9.2	180	
CC[C@@H](C(=O)[C@@H](C)[C@@H](O)[C@H](C)[C@@H]1O[C@@H]([C@@H](CC)C(=O)O)CC[C@@H]1C)[C@H]1O[C@]2(C=C[C@@H](NC(=O)OC(C(F)(F)F)C(F)(F)F)[C@]3(CC[C@@](C)([C@H]4CC[C@](O)(CC)[C@H](C)O4)O3)O2)[C@H](C)C[C@@H]1C [FLC-00531-1•Na]	13.2	11		6.2	23.3	IC50 ([10]; Mus musculus, BALB/3T3, read-out: IC50 (nM) BALB3T3 normal cells): 145 nM
CC[C@@H](C(=O)[C@@H](C)[C@@H](O)[C@H](C)[C@@H]1O[C@@H]([C@@H](CC)C(=O)O)CC[C@@H]1C)[C@H]1O[C@]2(C=C[C@@H](NC(=O)NCCCN3CCS(=O)(=O)CC3)[C@]3(CC[C@@](C)([C@H]4CC[C@](O)(CC)[C@H](C)O4)O3)O2)[C@H](C)C[C@@H]1C [FLC-00546-1•Na]	19.5	112	2180	8.5	258	
CC[C@@H](C(=O)[C@@H](C)[C@@H](O)[C@H](C)[C@@H]1O[C@@H]([C@@H](CC)C(=O)O)CC[C@@H]1C)[C@H]1O[C@]2(C=C[C@@H](NC(=O)N3CCS(=O)(=O)CC3)[C@]3(CC[C@@](C)([C@H]4CC[C@](O)(CC)[C@H](C)O4)O3)O2)[C@H](C)C[C@@H]1C [FLC-00560-1•Na]	18.8	283	5330	15.7	339	
CC[C@@H](C(=O)[C@@H](C)[C@@H](O)[C@H](C)[C@@H]1O[C@@H]([C@@H](CC)C(=O)O)CC[C@@H]1C)[C@H]1O[C@]2(C=C[C@@H](NS(=O)(=O)c3ccc(Br)cc3)[C@]3(CC[C@@](C)([C@H]4CC[C@](O)(CC)[C@H](C)O4)O3)O2)[C@H](C)C[C@@H]1C [FLC-00504-1•Na]	30.5	2.99	91.3	20.7	4.4	
CC[C@@H](C(=O)[C@@H](C)[C@@H](O)[C@H](C)[C@@H]1O[C@@H]([C@@H](CC)C(=O)O)CC[C@@H]1C)[C@H]1O[C@]2(C=C[C@@H](NC(=O)OCCOCCOCCOCCOC)[C@]3(CC[C@@](C)([C@H]4CC[C@](O)(CC)[C@H](C)O4)O3)O2)[C@H](C)C[C@@H]1C [FLC-00481-1•Na]	17.4	220	3830	12.0	320	
